Test system in the first series: not listed separately
Nature of the series: Cytotoxicity against human MRC5 cells incubated for 72 hrs by alamar blue staining based assay.
Conditions: not given; call rule not given here
Format: toxicity, cell-based. Background: Resazurin is reduced to fluorescent resorufin, in cell work by metabolically active cells.
As to `CN(C)CCCNc1cc2c3c(c(NCCCCCCCNc4cc5c6c(ccc7c6c4C(=O)N(CCCN(C)C)C7=O)C(=O)N(CCCN(C)C)C5=O)cc4c3c1C(=O)N(CCCN(C)C)C4=O)C(=O)N(CCCN(C)C)C2=O`, the IC50 at 72 h amounted to 66300 nM.

`CN(C)CCCNc1cc2c3c(c(N(C)C)cc4c3c1C(=O)N(CCCN(C)C)C4=O)C(=O)N(CCCN(C)C)C2=O` yielded an IC50 at 72 h of 7700 nM.

For the compound `O=c1c2ccc3c(=O)n(CCOCCO)c(=O)c4c5[nH]c6ccccc6[nH]c5c(c(=O)n1CCOCCO)c2c34`, the IC50 at 72 h was determined as 1800 nM.

On to `CN(C)CCCn1c(=O)c2ccc3c(=O)n(CCCN(C)C)c(=O)c4c5[nH]c6ccccc6[nH]c5c(c1=O)c2c34`, for which inhibition was half-maximal at 23 nM (IC50 at 72 h).

In another series the test system is Trypanosoma brucei. The series can be described thus: Antitrypanosomal activity against bloodstream-stage Trypanosoma brucei measured after 72 hrs by alamar blue assay. Format: functional, organism-based.
Conditions: not given
For the compound `CN(C)CCCNc1cc2c3c(c(NCCCCCCCNc4cc5c6c(ccc7c6c4C(=O)N(CCCN(C)C)C7=O)C(=O)N(CCCN(C)C)C5=O)cc4c3c1C(=O)N(CCCN(C)C)C4=O)C(=O)N(CCCN(C)C)C2=O`, the IC50 came to 8500 nM.

`CN(C)CCCNc1cc2c3c(c(N(C)C)cc4c3c1C(=O)N(CCCN(C)C)C4=O)C(=O)N(CCCN(C)C)C2=O` came in with a half-maximal inhibitory concentration (IC50) of 21 nM.

On to `O=c1c2ccc3c(=O)n(CCOCCO)c(=O)c4c5[nH]c6ccccc6[nH]c5c(c(=O)n1CCOCCO)c2c34`, for which the IC50 was determined as 290 nM.

`CN(C)CCCn1c(=O)c2ccc3c(=O)n(CCCN(C)C)c(=O)c4c5[nH]c6ccccc6[nH]c5c(c1=O)c2c34` showed an IC50 of 0.26 nM.

Another series deals with Leishmania major. Nature of the series: Antileishmanial activity against Leishmania major promastigotes MHOM/IL/80/Friedlin measured after 72 hrs by MTT assay. Format: functional, organism-based.
Conditions: not given
(Tetrazolium assays rely on reduction of a dye to a coloured formazan, in cell work by metabolically active cells.)
In the case of `CN(C)CCCNc1cc2c3c(c(NCCCCCCCNc4cc5c6c(ccc7c6c4C(=O)N(CCCN(C)C)C7=O)C(=O)N(CCCN(C)C)C5=O)cc4c3c1C(=O)N(CCCN(C)C)C4=O)C(=O)N(CCCN(C)C)C2=O`, the IC50 is above 100000 nM.

The compound `CN(C)CCCNc1cc2c3c(c(N(C)C)cc4c3c1C(=O)N(CCCN(C)C)C4=O)C(=O)N(CCCN(C)C)C2=O` returned an IC50 of 2960 nM.

`O=c1c2ccc3c(=O)n(CCOCCO)c(=O)c4c5[nH]c6ccccc6[nH]c5c(c(=O)n1CCOCCO)c2c34` gave an IC50 above 100000 nM.

As for `CN(C)CCCn1c(=O)c2ccc3c(=O)n(CCCN(C)C)c(=O)c4c5[nH]c6ccccc6[nH]c5c(c1=O)c2c34`, the 50% inhibitory concentration (IC50) was 2 nM.

Test system in another series: not listed separately
The series can be described thus: Selectivity index, ratio of IC50 for human MRC5 to IC50 for Trypanosoma brucei measured after 72 hrs by alamar blue assay. The conditions noted are these: MRC5 cells, read-out: Ratio IC50. Format: toxicity.
As for `CN(C)CCCNc1cc2c3c(c(NCCCCCCCNc4cc5c6c(ccc7c6c4C(=O)N(CCCN(C)C)C7=O)C(=O)N(CCCN(C)C)C5=O)cc4c3c1C(=O)N(CCCN(C)C)C4=O)C(=O)N(CCCN(C)C)C2=O`, the selectivity ratio at 72 h is 7.8.

Consider `CN(C)CCCNc1cc2c3c(c(N(C)C)cc4c3c1C(=O)N(CCCN(C)C)C4=O)C(=O)N(CCCN(C)C)C2=O`, for which the selectivity ratio at 72 h was determined as 367.

Turning to `O=c1c2ccc3c(=O)n(CCOCCO)c(=O)c4c5[nH]c6ccccc6[nH]c5c(c(=O)n1CCOCCO)c2c34`, the selectivity ratio at 72 h was 6.2.

As to `CN(C)CCCn1c(=O)c2ccc3c(=O)n(CCCN(C)C)c(=O)c4c5[nH]c6ccccc6[nH]c5c(c1=O)c2c34`, the selectivity ratio at 72 h worked out at 88.

Test system in the next series: not listed separately
The series can be described thus: Selectivity index, ratio of IC50 for human MRC5 to IC50 for Leishmania major measured after 72 hrs by MTT assay. It is filed as toxicity. The conditions noted are these: MRC5 cells, read-out: Ratio IC50.
Take `CN(C)CCCNc1cc2c3c(c(NCCCCCCCNc4cc5c6c(ccc7c6c4C(=O)N(CCCN(C)C)C7=O)C(=O)N(CCCN(C)C)C5=O)cc4c3c1C(=O)N(CCCN(C)C)C4=O)C(=O)N(CCCN(C)C)C2=O`: the selectivity ratio at 72 h was below 0.66.

`CN(C)CCCNc1cc2c3c(c(N(C)C)cc4c3c1C(=O)N(CCCN(C)C)C4=O)C(=O)N(CCCN(C)C)C2=O`: the selectivity ratio at 72 h was 2.6.

`O=c1c2ccc3c(=O)n(CCOCCO)c(=O)c4c5[nH]c6ccccc6[nH]c5c(c(=O)n1CCOCCO)c2c34`: the selectivity ratio at 72 h was below 0.018.

For the compound `CN(C)CCCn1c(=O)c2ccc3c(=O)n(CCCN(C)C)c(=O)c4c5[nH]c6ccccc6[nH]c5c(c1=O)c2c34`, the selectivity ratio at 72 h worked out at 11.5.

A further series relates to Trypanosoma brucei. The series can be described thus: Trypanocidal activity against bloodstream-stage Trypanosoma brucei measured after 72 hrs by CellTiter-Glo luminescent assay.
Conditions: not given
It is filed as functional, organism-based. (In ATP-based viability assays light output follows the ATP content of the culture.)
`O=c1c2ccc3c(=O)n(CCOCCO)c(=O)c4c5[nH]c6ccccc6[nH]c5c(c(=O)n1CCOCCO)c2c34` showed an IC50 of 130 nM.

As for `CN(C)CCCn1c(=O)c2ccc3c(=O)n(CCCN(C)C)c(=O)c4c5[nH]c6ccccc6[nH]c5c(c1=O)c2c34`, the IC50 came out at 0.07 nM.

Test system in another series: not listed separately
Nature of the series: Selectivity index, ratio of IC50 for human MRC5 to IC50 for Trypanosoma brucei measured after 72 hrs by CellTiter-Glo luminescent assay. The settings on record: MRC5 cells, read-out: Ratio IC50. It is filed as toxicity.
Consider `O=c1c2ccc3c(=O)n(CCOCCO)c(=O)c4c5[nH]c6ccccc6[nH]c5c(c(=O)n1CCOCCO)c2c34`, for which the selectivity ratio at 72 h amounted to 13.8.

In the case of `CN(C)CCCn1c(=O)c2ccc3c(=O)n(CCCN(C)C)c(=O)c4c5[nH]c6ccccc6[nH]c5c(c1=O)c2c34`, the selectivity ratio at 72 h is 328.

In the next series the test system is Quadruplex DNA. The series can be described thus: Stabilization of 22AG G4 DNA (unknown origin) assessed as change in melting temperature at 1 uM by FRET assay. Format: nucleic-acid assay.
Conditions: not given
Consider `CN(C)CCCNc1cc2c3c(c(NCCCCCCCNc4cc5c6c(ccc7c6c4C(=O)N(CCCN(C)C)C7=O)C(=O)N(CCCN(C)C)C5=O)cc4c3c1C(=O)N(CCCN(C)C)C4=O)C(=O)N(CCCN(C)C)C2=O`, for which the ΔTm stood at 18.3 °C.

For the compound `CN(C)CCCNc1cc2c3c(c(N(C)C)cc4c3c1C(=O)N(CCCN(C)C)C4=O)C(=O)N(CCCN(C)C)C2=O`, the ΔTm was determined as 1.9 °C.

As for `O=c1c2ccc3c(=O)n(CCOCCO)c(=O)c4c5[nH]c6ccccc6[nH]c5c(c(=O)n1CCOCCO)c2c34`, the ΔTm is -2.2 °C.

Consider `CN(C)CCCn1c(=O)c2ccc3c(=O)n(CCCN(C)C)c(=O)c4c5[nH]c6ccccc6[nH]c5c(c1=O)c2c34`, for which the ΔTm amounted to 8.5 °C.

A further series relates to Quadruplex DNA. The series can be described thus: Stabilization of Trypanosoma brucei ERB1 G4 DNA assessed as change in melting temperature at 1 uM by FRET assay.
Conditions: not given
Format: nucleic-acid assay.
For the compound `CN(C)CCCNc1cc2c3c(c(NCCCCCCCNc4cc5c6c(ccc7c6c4C(=O)N(CCCN(C)C)C7=O)C(=O)N(CCCN(C)C)C5=O)cc4c3c1C(=O)N(CCCN(C)C)C4=O)C(=O)N(CCCN(C)C)C2=O`, the ΔTm is above 30 °C.

In the case of `CN(C)CCCNc1cc2c3c(c(N(C)C)cc4c3c1C(=O)N(CCCN(C)C)C4=O)C(=O)N(CCCN(C)C)C2=O`, the shift in melting temperature (ΔTm) was 3.6 °C.

On to `O=c1c2ccc3c(=O)n(CCOCCO)c(=O)c4c5[nH]c6ccccc6[nH]c5c(c(=O)n1CCOCCO)c2c34`, for which the ΔTm was 2.1 °C.

In the case of `CN(C)CCCn1c(=O)c2ccc3c(=O)n(CCCN(C)C)c(=O)c4c5[nH]c6ccccc6[nH]c5c(c1=O)c2c34`, the shift in melting temperature (ΔTm) was above 30 °C.

A further series deals with Quadruplex DNA. Nature of the series: Stabilization of 22AG G4 DNA (unknown origin) assessed as change in melting temperature at 265 nm wavelength at 5 uM by CD spectroscopy. Format: nucleic-acid assay.
Conditions: not given
With `CN(C)CCCNc1cc2c3c(c(N(C)C)cc4c3c1C(=O)N(CCCN(C)C)C4=O)C(=O)N(CCCN(C)C)C2=O`, the ΔTm amounted to 8.9 °C.

As for `CN(C)CCCn1c(=O)c2ccc3c(=O)n(CCCN(C)C)c(=O)c4c5[nH]c6ccccc6[nH]c5c(c1=O)c2c34`, the ΔTm came out at 6.7 °C.

In the next series the test system is Quadruplex DNA. The series can be described thus: Stabilization of 22AG G4 DNA (unknown origin) assessed as change in melting temperature at 292 nm wavelength at 5 uM by CD spectroscopy.
Conditions: not given
Format: nucleic-acid assay.
With `CN(C)CCCNc1cc2c3c(c(N(C)C)cc4c3c1C(=O)N(CCCN(C)C)C4=O)C(=O)N(CCCN(C)C)C2=O`, the ΔTm is -1.4 °C.

Consider `CN(C)CCCn1c(=O)c2ccc3c(=O)n(CCCN(C)C)c(=O)c4c5[nH]c6ccccc6[nH]c5c(c1=O)c2c34`, for which the thermal shift (ΔTm) was determined as 3 °C.

A further series concerns Quadruplex DNA. The series can be described thus: Stabilization of Trypanosoma brucei ERB1 G4 DNA assessed as change in melting temperature at 265 nm wavelength at 5 uM by CD spectroscopy. Format: nucleic-acid assay.
Conditions: not given
For the compound `CN(C)CCCNc1cc2c3c(c(N(C)C)cc4c3c1C(=O)N(CCCN(C)C)C4=O)C(=O)N(CCCN(C)C)C2=O`, the ΔTm stood at 2.4 °C.

Regarding `CN(C)CCCn1c(=O)c2ccc3c(=O)n(CCCN(C)C)c(=O)c4c5[nH]c6ccccc6[nH]c5c(c1=O)c2c34`, the ΔTm was found to be 25.9 °C.

Another series has as its system Quadruplex DNA. Nature of the series: Stabilization of Trypanosoma brucei ERB1 G4 DNA assessed as change in melting temperature at 292 nm wavelength at 5 uM by CD spectroscopy. Format: nucleic-acid assay.
Conditions: not given
`CN(C)CCCNc1cc2c3c(c(N(C)C)cc4c3c1C(=O)N(CCCN(C)C)C4=O)C(=O)N(CCCN(C)C)C2=O`: the thermal shift (ΔTm) was found to be 2.7 °C.

As to `CN(C)CCCn1c(=O)c2ccc3c(=O)n(CCCN(C)C)c(=O)c4c5[nH]c6ccccc6[nH]c5c(c1=O)c2c34`, the ΔTm was 23 °C.

Test system in another series: not listed separately
The series can be described thus: Drug uptake in human MRC5 cells at 4 to 37 degreeC at 5 uM after 30 to 120 mins by flow cytometry analysis. It is filed as ADME, cell-based. The settings on record: mrc5, 5 µM, time 30-120 min.
For `CN(C)CCCn1c(=O)c2ccc3c(=O)n(CCCN(C)C)c(=O)c4c5[nH]c6ccccc6[nH]c5c(c1=O)c2c34`, the Drug uptake entry is reported as “Active”.

Test system in a further series: not listed separately
The series can be described thus: Drug uptake in Trypanosoma brucei at 4 to 37 degreeC at 5 uM after 30 to 120 mins by flow cytometry analysis. It is filed as ADME. The conditions noted are these: time 30-120 min.
With `CN(C)CCCNc1cc2c3c(c(N(C)C)cc4c3c1C(=O)N(CCCN(C)C)C4=O)C(=O)N(CCCN(C)C)C2=O`, the Drug uptake is 0%.

`CN(C)CCCn1c(=O)c2ccc3c(=O)n(CCCN(C)C)c(=O)c4c5[nH]c6ccccc6[nH]c5c(c1=O)c2c34`: the Drug uptake turned out to be 20%.

One may read the IC50 as the concentration needed to halve the response being measured. What is called ΔTm is the shift of the melting midpoint relative to a reference.

Values taken from ChEMBL document CHEMBL5500418, “Structure-Activity Study on Substituted, Core-Extended, and Dyad Naphthalene Diimide G-Quadruplex Ligands Leading to Potent Antitrypanosomal Agents” (J Med Chem, 2024).
